Experiment [1] addresses T1, human 5-hydroxytryptamine-2C (h5-HT2C) receptor (Homo sapiens, UniProt P28335).
T1 construct: expressed in transfected cells; host or cells: CHO (Chinese Hamster Ovary) cells; membrane preparation
T1 sequence (P28335 33-458): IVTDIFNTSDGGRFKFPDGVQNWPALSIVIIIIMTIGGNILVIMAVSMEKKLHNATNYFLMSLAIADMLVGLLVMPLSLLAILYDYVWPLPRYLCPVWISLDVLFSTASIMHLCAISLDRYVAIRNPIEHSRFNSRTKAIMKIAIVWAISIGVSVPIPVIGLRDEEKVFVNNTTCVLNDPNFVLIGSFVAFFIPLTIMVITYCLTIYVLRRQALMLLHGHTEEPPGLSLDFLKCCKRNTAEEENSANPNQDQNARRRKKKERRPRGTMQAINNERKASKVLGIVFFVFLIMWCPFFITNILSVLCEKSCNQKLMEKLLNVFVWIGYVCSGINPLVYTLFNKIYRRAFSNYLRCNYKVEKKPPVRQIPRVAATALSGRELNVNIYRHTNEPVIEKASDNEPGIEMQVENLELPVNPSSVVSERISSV
Description: [125I]DOI binding to membranes of CHO cells expressing h5-HT2C receptor. As to conditions: read-out: 5-HT2C Binding Ki avg.

Experiment [2] has as its target T2, human 5-HT2C receptor (Homo sapiens, UniProt P28335).
T2 sequence (P28335 33-458): T1 sequence (P28335 33-458)
As to the kind of experiment: calcium mobilization (FLIPR) in CHO cells stably expressing the human 5-HT2C receptor. In kind it is cell-based. As to conditions: for Emax: CHO, read-out: 5-HT2C Function EMax (%); for EC50: calcium mobilization, read-out: 5-HT2C Function EC50. (A change in cytosolic calcium serves as a functional read-out for many receptors and channels.)

Among the data in patent publication US7365095B2, “Chromane and chromene derivatives and uses thereof” (Wyeth, priority 2005, dated 2008) are Ki, Emax and EC50 values, retold here.

A word on the Ki: it is a dissociation constant, usually derived from enzyme kinetics or from competition with a known ligand. In general, Emax refers to the greatest response seen or fitted, relative to the assay's reference. As usually defined, the EC50 is the concentration at which the effect is half-maximal.

Counter-ions that a name gives are not always drawn.

Take `CNC[C@H]1CCc2cccc(-c3ccccc3Cl)c2O1` [Compound 10, N-{[(2R)-8-(2-chlorophenyl)-3,4-dihydro-2H-chromen-2-yl]methyl}-N-methylamine hydrochloride]: the Ki in experiment [1] is at most 10 nM. Moreover, in experiment [2], the Emax turned out to be 100% and the concentration giving a half-maximal response (EC50) was under 50 nM.

As to `Cc1ccccc1-c1cc(F)cc2c1O[C@H](CN)CC2` [Compound 53, {[(2S)-6-fluoro-8-(2-methylphenyl)-3,4-dihydro-2H-chromen-2-yl]methyl}amine hydrochloride], the Ki in experiment [1] fell in the range of 10 to 50 nM. In experiment [2], the maximal effect (Emax) turned out to be 70% and the EC50 is 50 to 200 nM.

On to `CCNC[C@H]1CCc2cc(F)cc(-c3c(Cl)cccc3Cl)c2O1` [Compound 58, N-{[(2R)-8-(2,6-dichlorophenyl)-6-fluoro-3,4-dihydro-2H-chromen-2-yl]methyl}ethanamine hydrochloride], for which, in experiment [1], the Ki is at most 10 nM. In addition, in experiment [2], the Emax worked out at 60% and the EC50 was under 50 nM.

For the compound `NC[C@H]1CCc2cc(F)cc(-c3cc(Cl)ccc3Cl)c2O1` [Compound 46, {[(2R)-8-(2,5-dichlorophenyl)-6-fluoro-3,4-dihydro-2H-chromen-2-yl]methyl}amine hydrochloride], the Ki in experiment [1] is 10 to 50 nM. Moreover, in experiment [2], the Emax was 90% and the 50% effective concentration (EC50) was over 200 nM.

As to `CNC[C@@H]1CCc2cccc(-c3ccccc3Cl)c2O1` [Compound 19, {[(2S)-8-(2-chlorophenyl)-3,4-dihydro-2H-chromen-2-yl]methyl}methylamine hydrochloride], the Ki in experiment [1] is at most 10 nM. Further, in experiment [2], the Emax was 80% and the EC50 lay within 50 to 200 nM.

In the case of `COc1ccccc1-c1cc(F)cc2c1O[C@@H](CN)CC2` [Compound 38, 1-[(2R)-6-fluoro-8-(2-methoxyphenyl)-3,4-dihydro-2H-chromen-2-yl]methanamine hydrochloride], the inhibition constant Ki in experiment [1] is at most 10 nM. In experiment [2], the Emax was determined as 80% and the 50% effective concentration (EC50) is under 50 nM.

With `NC[C@H]1CCc2cccc(-c3ccccc3)c2O1` [Compound 14, {[(2R)-8-phenyl-3,4-dihydro-2H-chromen-2-yl]methyl}amine hydrochloride], the inhibition constant Ki in experiment [1] was 10 to 50 nM. Also, in experiment [2], the Emax is 80% and the EC50 was over 200 nM.

For the compound `NC[C@@H]1CCc2cccc(-c3ccccc3Cl)c2O1` [Compound 27, {[(2S)-8-(2-chlorophenyl)-3,4-dihydro-2H-chromen-2-yl]methyl}amine hydrochloride], the Ki in experiment [1] fell in the range of 10 to 50 nM. Also, in experiment [2], the Emax was determined as 80% and the EC50 lay within 50 to 200 nM.

Consider `NC[C@H]1CCc2cccc(-c3cc(Cl)ccc3Cl)c2O1` [Compound 12, {[(2R)-8-(2,5-dichlorophenyl)-3,4-dihydro-2H-chromen-2-yl]methyl}amine hydrochloride], for which the Ki in experiment [1] lay in the range of 10 to 50 nM. Also, in experiment [2], the maximal response (Emax) was determined as 90% and the EC50 lay in the range of 50 to 200 nM.

As to `CNC[C@H]1CCc2cccc(-c3ccccc3)c2O1` [Compound 5, N-methyl-N-{[(2R)-8-phenyl-3,4-dihydro-2H-chromen-2-yl]methyl}amine hydrochloride], in experiment [1], the Ki is at most 10 nM. In experiment [2], the maximum response (Emax) stood at 90% and the EC50 was 50 to 200 nM.

For `NC[C@H]1CCc2cc(F)cc(-c3c(Cl)cccc3Cl)c2O1` [Compound 57, {[(2R)-8-(2,6-dichlorophenyl)-6-fluoro-3,4-dihydro-2H-chromen-2-yl]methyl}amine hydrochloride], in experiment [1], the Ki was at most 10 nM. For the same compound, in experiment [2], the Emax came out at 80% and the EC50 was under 50 nM.

`Cc1ccccc1-c1cccc2c1O[C@@H](CN)CC2` [Compound 17, {[(2R)-8-(2-methylphenyl)-3,4-dihydro-2H-chromen-2-yl]methyl}amine hydrochloride]: the Ki in experiment [1] is at most 10 nM. For the same compound, in experiment [2], the Emax came out at 80% and the EC50 was under 50 nM.

Take `NC[C@H]1CCCc2cc(F)cc(-c3c(Cl)cccc3Cl)c2O1` [Compound 68, {[(2R)-9-(2,6-dichlorophenyl)-7-fluoro-2,3,4,5-tetrahydro-1-benzoxepin-2-yl]methyl}amine hydrochloride]: the Ki in experiment [1] fell in the range of 10 to 50 nM. Also, in experiment [2], the maximal response (Emax) worked out at 80% and the EC50 lay within 50 to 200 nM.

`NC[C@H]1CCc2cccc(-c3ccc(Cl)cc3Cl)c2O1` [Compound 13, {[(2R)-8-(2,4-dichlorophenyl)-3,4-dihydro-2H-chromen-2-yl]methyl}amine hydrochloride]: in experiment [1], the Ki was at most 10 nM. Moreover, in experiment [2], the maximum response (Emax) was found to be 100% and the EC50 is under 50 nM.

Regarding `COc1ccc(-c2cccc3c2O[C@@H](CN)CC3)c(OC)c1` [Compound 16, {[(2R)-8-(2,4-dimethoxyphenyl)-3,4-dihydro-2H-chromen-2-yl]methyl}amine hydrochloride], the Ki in experiment [1] is at most 10 nM. Besides, in experiment [2], the Emax came to 100% and the EC50 was under 50 nM.

As for `NC[C@H]1CCc2cc(F)cc(-c3ccccc3Cl)c2O1` [Compound 45, {[(2R)-8-(2-chlorophenyl)-6-fluoro-3,4-dihydro-2H-chromen-2-yl]methyl}amine hydrochloride], the inhibition constant Ki in experiment [1] is at most 10 nM. Further, in experiment [2], the Emax was determined as 90% and the EC50 was under 50 nM.

As for `NCC1CCc2cccc(-c3ccccc3Cl)c2O1` (stereo not drawn) [Compound 2, {[8-(2-chlorophenyl)-3,4-dihydro-2H-chromen-2-yl]methyl}amine trifluoroacetate], the Ki in experiment [1] is at most 10 nM. For the same compound, in experiment [2], the Emax stood at 80% and the EC50 was under 50 nM.

On to `COc1ccccc1-c1cc(F)cc2c1O[C@@H](CN)C=C2` [Compound 65, {[(2R)-6-fluoro-8-(2-methoxyphenyl)-2H-chromen-2-yl]methyl}amine hydrochloride], for which, in experiment [1], the inhibition constant (Ki) was at most 10 nM. Moreover, in experiment [2], the Emax came to 80% and the EC50 was under 50 nM.

As for `CNC[C@@H]1CCc2cccc(-c3ccc(Cl)cc3Cl)c2O1` [Compound 21, {[(2S)-8-(2,4-dichlorophenyl)-3,4-dihydro-2H-chromen-2-yl]methyl}methylamine hydrochloride], the inhibition constant (Ki) in experiment [1] is over 50 nM. For the same compound, in experiment [2], the Emax was found to be 80% and the EC50 fell in the range of 50 to 200 nM.

Regarding `NC[C@H]1CCc2cccc(-c3cccnc3)c2O1` [Compound 18, {[(2R)-8-pyridin-3-yl-3,4-dihydro-2H-chromen-2-yl]methyl}amine hydrochloride], the Ki in experiment [1] was over 50 nM. Also, in experiment [2], the maximum response (Emax) was found to be 90% and the EC50 is under 50 nM.

On to `CNC[C@H]1CCc2cc(F)cc(-c3cc(Cl)ccc3Cl)c2O1` [Compound 40, {[(2R)-8-(2,5-dichlorophenyl)-6-fluoro-3,4-dihydro-2H-chromen-2-yl]methyl}methylamine hydrochloride], for which, in experiment [1], the inhibitory constant (Ki) is at most 10 nM. In experiment [2], the Emax turned out to be 90% and the 50% effective concentration (EC50) is under 50 nM.

Turning to `CNC[C@@H]1CCc2cccc(-c3ccccc3C)c2O1` [Compound 25, N-methyl-1-[(2S)-8-(2-methylphenyl)-3,4-dihydro-2H-chromen-2-yl]methanamine hydrochloride], the Ki in experiment [1] is 10 to 50 nM. In addition, in experiment [2], the maximum response (Emax) amounted to 90% and the EC50 is over 200 nM.

On to `NC[C@@H]1CCc2cccc(-c3cc(Cl)ccc3Cl)c2O1` [Compound 28, {[(2S)-8-(2,5-dichlorophenyl)-3,4-dihydro-2H-chromen-2-yl]methyl}amine hydrochloride], for which the Ki in experiment [1] was 10 to 50 nM. In experiment [2], the Emax turned out to be 100% and the EC50 lay in the range of 50 to 200 nM.
